Data reported in the supplement of paper PMC6045584.
± gives the standard deviation of the averaged measurements.

Key:
[1] = compound: COc1cc2ncnc(Nc3ccc(F)c(Cl)c3)c2cc1NC(=O)/C=C/CN1CCCCC1; experiment: surviving fraction relative to DMSO-only wells; higher = less growth inhibition; conditions: exposure time: 5 days
Outline: (§1)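 Each tumour cell line was screened three times, and only lines with replicate Pearson r >0.7 and median Z' >0.3 were kept. Cells in log phase were seeded at 250–500 per well in 384-well plates, left 24 hours, then exposed continuously for five days to inhibitors at 0.5, 1, 5, 10, 50, 100, 500 and 1000 nM. Viability was read as CellTiter-Glo luminescence, with surviving fraction normalised to the median of DMSO-only wells.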

[2] = compound: NS(=O)(=O)OC[C@@H]1C[C@@H](n2ccc3c(N[C@H]4CCc5ccccc54)ncnc32)C[C@@H]1O [MLN-4924]; experiment: as above; conditions: exposure time: 5 days
Outline: as §1

Test System	surviving fraction ([1]; 0.5 nM)	surviving fraction ([1]; 1 nM)	surviving fraction ([1]; 5 nM)	surviving fraction ([1]; 10 nM)	surviving fraction ([1]; 50 nM)	surviving fraction ([1]; 100 nM)	surviving fraction ([1]; 500 nM)	surviving fraction ([1]; 1000 nM)	surviving fraction ([2]; 0.5 nM)	surviving fraction ([2]; 1 nM)	surviving fraction ([2]; 5 nM)	surviving fraction ([2]; 10 nM)	surviving fraction ([2]; 50 nM)	surviving fraction ([2]; 100 nM)	surviving fraction ([2]; 500 nM)	surviving fraction ([2]; 1000 nM)
HCC1395 BREAST	0.92 ± 0.09	0.93 ± 0.037	1.08 ± 0.099	1.03 ± 0.036	1.05 ± 0.16	1.01 ± 0.21	0.896 ± 0.14	0.809 ± 0.15	1.07 ± 0.042	1.13 ± 0.05	1.01 ± 0.14	1.15 ± 0.14	1.1 ± 0.014	1.083 ± 0.008	0.989 ± 0.1	1.01 ± 0.053
HCC1806 BREAST	1.11 ± 0.16	1.05 ± 0.11	1 ± 0.083	0.79 ± 0.046	0.663 ± 0.087	0.573 ± 0.014	0.458 ± 0.052	0.322 ± 0.022	0.949 ± 0.094	1.02 ± 0.089	0.907 ± 0.074	0.395 ± 0.02	0.0957 ± 0.0076	0.0527 ± 0.0076	0.031	0.029 ± 0.0017
HCC1954 BREAST	1.11 ± 0.075	0.808 ± 0.064	0.756 ± 0.028	0.722 ± 0.084	0.508 ± 0.0074	0.471 ± 0.0092	0.283 ± 0.013	0.155 ± 0.018	1.12 ± 0.082	1.13 ± 0.045	1.09 ± 0.049	1.17 ± 0.3	0.656 ± 0.075	0.518 ± 0.021	0.1795 ± 0.0014	0.112 ± 0.016
HCT15 LARGE INTESTINE	1.03 ± 0.044	1.09 ± 0.06	1.05 ± 0.043	1.06 ± 0.069	1.02 ± 0.033	1.06 ± 0.031	1.03 ± 0.088	0.821 ± 0.057	1.06 ± 0.015	1.05 ± 0.095	1.07 ± 0.042	1.08 ± 0.065	0.966 ± 0.11	0.906 ± 0.11	0.299 ± 0.065	0.166 ± 0.041
HELA CERVIX	1.07 ± 0.055	1.07 ± 0.051	1 ± 0.076	1.04 ± 0.023	1.18 ± 0.038	1.17 ± 0.025	1.19 ± 0.072	1.13 ± 0.071	1.12 ± 0.038	1.07 ± 0.06	1.1 ± 0.052	1 ± 0.022	1.16 ± 0.086	1.17 ± 0.1	0.718 ± 0.055	0.611 ± 0.027
HOS BONE	1.017 ± 0.0078	1 ± 0.018	1.02 ± 0.017	1.02 ± 0.015	1.05 ± 0.019	1.04 ± 0.023	0.951 ± 0.057	0.888 ± 0.032	1.04 ± 0.026	1.02 ± 0.014	1.01 ± 0.042	0.949 ± 0.027	0.574 ± 0.033	0.337 ± 0.013	0.0287 ± 0.0011	0.0287 ± 0.0021
HOSMNG BONE	0.909 ± 0.07	0.924 ± 0.11	0.958 ± 0.063	0.917 ± 0.086	1.033 ± 0.0083	1.02 ± 0.046	0.97 ± 0.1	0.953 ± 0.017	0.883 ± 0.092	0.897 ± 0.032	0.951 ± 0.024	0.917 ± 0.05	1.04 ± 0.14	1.08 ± 0.053	0.503 ± 0.18	0.097 ± 0.016
HSSYII SYNOVIAL	0.98 ± 0.031	0.942 ± 0.038	0.966 ± 0.054	0.942 ± 0.03	0.928 ± 0.059	0.927 ± 0.045	0.715 ± 0.041	0.495 ± 0.0068	1.01 ± 0.14	1 ± 0.078	0.965 ± 0.033	0.992 ± 0.071	0.286 ± 0.012	0.166 ± 0.008	0.0248 ± 0.001	0.0283 ± 0.002
HT1080 SOFT TISSUE	1.02 ± 0.015	1.01 ± 0.023	0.964 ± 0.0098	0.984 ± 0.026	1.03 ± 0.015	0.981 ± 0.034	0.9 ± 0.04	0.751 ± 0.045	1.074 ± 0.0072	1.05 ± 0.047	1.112 ± 0.0055	1.14 ± 0.045	0.9977 ± 0.0078	0.705 ± 0.042	0.223 ± 0.022	0.11 ± 0.0061
HU09 BONE	1.09 ± 0.03	0.996 ± 0.062	1.14 ± 0.028	1.11 ± 0.12	1.15 ± 0.019	1.01 ± 0.12	0.635 ± 0.0066	0.432 ± 0.026	0.948 ± 0.097	0.931 ± 0.076	1.04 ± 0.03	1.15 ± 0.048	1.01 ± 0.096	0.707 ± 0.052	0.296 ± 0.0049	0.26 ± 0.018
